Experimental data published in patent US20250326753A1, “DUAL CXCR4-BTK INHIBITORS” (X4 Pharmaceuticals, Inc., priority 2022, published 2025).

Experiments:
Type in all cases: biochemical
EGFR = target: T1, EGFR (Homo sapiens, UniProt P00533); test: PanQinase kinase panel: EGFR; details: read-out: INHIBITORY EFFECT @ 1 uM: EGFR
T1 construct: purchased Reaction Biology Europe GmbH
Procedure: (§1) Screening procedures were performed in accordance with the company's on-line protocol [accessed on-line Mar.
(§2) For each kinase, the median value of the cpm of three wells was defined as “low control” (n=3). This value reflects unspecific binding of radioactivity to the plate in the absence of a protein kinase but in the presence of the substrate. Additionally, for each kinase the median value of the cpm of three other wells was taken as the “high control,” i.e. full activity in the absence of any inhibitor (n=3). The difference between high and low control of each enzyme was taken as 100% activity.
(§3) As part of the data evaluation the low control of each kinase was subtracted from the high control value as well as from their corresponding “compound values”. The residual activity (in %) for each compound well was calculated by using the following formula: Res. Activity (%)=100×[(signal of compound−low control)/(high control−low control)].

FGFR1 = target: T2, FGFR1 (Homo sapiens, UniProt P11362); test: PanQinase kinase panel: FGFR1; details: read-out: INHIBITORY EFFECT @ 1 uM: FGFR1
T2 construct: purchased Reaction Biology Europe GmbH
T2 sequence (P11362 22-822): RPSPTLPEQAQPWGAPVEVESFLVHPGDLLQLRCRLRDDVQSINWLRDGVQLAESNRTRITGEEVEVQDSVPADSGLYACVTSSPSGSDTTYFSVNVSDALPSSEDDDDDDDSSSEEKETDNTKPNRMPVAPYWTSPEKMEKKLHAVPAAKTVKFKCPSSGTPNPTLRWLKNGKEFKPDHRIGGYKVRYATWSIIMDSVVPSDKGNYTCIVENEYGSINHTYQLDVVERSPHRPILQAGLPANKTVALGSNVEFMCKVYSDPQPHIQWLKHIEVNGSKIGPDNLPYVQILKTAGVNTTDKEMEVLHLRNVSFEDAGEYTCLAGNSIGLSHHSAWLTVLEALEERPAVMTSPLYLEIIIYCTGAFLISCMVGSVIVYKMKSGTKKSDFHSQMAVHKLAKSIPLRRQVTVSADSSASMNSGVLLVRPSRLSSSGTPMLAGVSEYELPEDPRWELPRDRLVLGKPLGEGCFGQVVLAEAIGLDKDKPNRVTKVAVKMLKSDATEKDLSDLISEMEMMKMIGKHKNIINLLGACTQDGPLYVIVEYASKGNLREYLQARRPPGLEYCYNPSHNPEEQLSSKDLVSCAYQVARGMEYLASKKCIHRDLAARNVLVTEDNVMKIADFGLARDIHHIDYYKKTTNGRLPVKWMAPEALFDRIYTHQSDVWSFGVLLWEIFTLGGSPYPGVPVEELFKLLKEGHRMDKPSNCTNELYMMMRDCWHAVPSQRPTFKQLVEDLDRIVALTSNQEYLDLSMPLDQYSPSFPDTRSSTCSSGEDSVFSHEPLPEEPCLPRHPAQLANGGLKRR
Procedure: as §1, §2, §3

EPHA6 = target: T3, EPHA6 (Homo sapiens, UniProt Q9UF33); test: PanQinase kinase panel: EPHA6; details: read-out: INHIBITORY EFFECT @ 1 uM: EPHA6
T3 construct: purchased Reaction Biology Europe GmbH
T3 sequence (Q9UF33 23-1036): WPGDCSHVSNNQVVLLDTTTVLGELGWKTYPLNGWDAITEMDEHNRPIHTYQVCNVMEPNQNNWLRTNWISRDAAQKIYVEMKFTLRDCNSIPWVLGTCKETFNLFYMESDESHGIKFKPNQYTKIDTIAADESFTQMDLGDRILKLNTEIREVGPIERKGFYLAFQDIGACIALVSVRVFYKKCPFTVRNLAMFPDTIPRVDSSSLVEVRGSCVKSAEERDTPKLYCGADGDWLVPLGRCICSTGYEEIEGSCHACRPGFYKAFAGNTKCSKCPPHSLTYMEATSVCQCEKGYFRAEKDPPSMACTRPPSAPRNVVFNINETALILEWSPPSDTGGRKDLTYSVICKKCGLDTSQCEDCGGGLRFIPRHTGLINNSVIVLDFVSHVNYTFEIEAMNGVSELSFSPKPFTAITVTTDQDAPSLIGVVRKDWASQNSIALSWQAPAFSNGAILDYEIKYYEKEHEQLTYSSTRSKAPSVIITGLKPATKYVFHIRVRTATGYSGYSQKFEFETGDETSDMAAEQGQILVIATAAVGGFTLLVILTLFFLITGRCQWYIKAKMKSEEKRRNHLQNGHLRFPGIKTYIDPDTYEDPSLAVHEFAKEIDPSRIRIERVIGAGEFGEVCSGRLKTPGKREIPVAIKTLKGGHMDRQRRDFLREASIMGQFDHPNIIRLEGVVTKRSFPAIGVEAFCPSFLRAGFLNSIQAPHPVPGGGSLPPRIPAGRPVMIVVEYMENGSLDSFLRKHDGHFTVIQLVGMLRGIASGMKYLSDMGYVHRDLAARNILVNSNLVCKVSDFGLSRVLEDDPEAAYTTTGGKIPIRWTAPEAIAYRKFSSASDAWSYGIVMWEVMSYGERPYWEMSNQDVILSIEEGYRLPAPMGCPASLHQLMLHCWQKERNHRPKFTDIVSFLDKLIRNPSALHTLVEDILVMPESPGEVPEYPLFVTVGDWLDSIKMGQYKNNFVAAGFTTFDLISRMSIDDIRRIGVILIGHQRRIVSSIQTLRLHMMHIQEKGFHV
Procedure: as §1, §2, §3

ITK = target: T4, ITK (Homo sapiens, UniProt Q08881); test: PanQinase kinase panel: ITK; details: read-out: INHIBITORY EFFECT @ 1 uM: ITK
T4 construct: purchased Reaction Biology Europe GmbH
T4 sequence (Q08881 1-620): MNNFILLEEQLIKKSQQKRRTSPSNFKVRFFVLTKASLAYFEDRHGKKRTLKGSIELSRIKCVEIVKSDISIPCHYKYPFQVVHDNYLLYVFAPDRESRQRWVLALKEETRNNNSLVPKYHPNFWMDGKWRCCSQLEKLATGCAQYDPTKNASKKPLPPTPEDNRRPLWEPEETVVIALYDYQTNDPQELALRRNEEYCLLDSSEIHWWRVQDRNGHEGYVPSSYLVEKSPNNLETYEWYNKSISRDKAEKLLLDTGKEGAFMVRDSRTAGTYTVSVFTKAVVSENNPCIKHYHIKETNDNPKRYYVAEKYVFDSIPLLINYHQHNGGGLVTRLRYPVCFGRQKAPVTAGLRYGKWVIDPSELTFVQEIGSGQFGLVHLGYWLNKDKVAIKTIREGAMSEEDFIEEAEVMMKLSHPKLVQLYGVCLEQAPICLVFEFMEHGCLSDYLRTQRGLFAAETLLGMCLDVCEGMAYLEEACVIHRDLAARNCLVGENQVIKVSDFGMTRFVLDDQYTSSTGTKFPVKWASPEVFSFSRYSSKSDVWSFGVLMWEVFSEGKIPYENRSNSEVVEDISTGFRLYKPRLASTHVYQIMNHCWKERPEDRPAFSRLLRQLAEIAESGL
Procedure: as §1, §2, §3

MEKK3 = target: T5, MEKK3 (Homo sapiens, UniProt Q99759); test: PanQinase kinase panel: MEKK3; details: read-out: INHIBITORY EFFECT @ 1 uM: MEKK3
T5 construct: purchased Reaction Biology Europe GmbH
T5 sequence (Q99759 1-626): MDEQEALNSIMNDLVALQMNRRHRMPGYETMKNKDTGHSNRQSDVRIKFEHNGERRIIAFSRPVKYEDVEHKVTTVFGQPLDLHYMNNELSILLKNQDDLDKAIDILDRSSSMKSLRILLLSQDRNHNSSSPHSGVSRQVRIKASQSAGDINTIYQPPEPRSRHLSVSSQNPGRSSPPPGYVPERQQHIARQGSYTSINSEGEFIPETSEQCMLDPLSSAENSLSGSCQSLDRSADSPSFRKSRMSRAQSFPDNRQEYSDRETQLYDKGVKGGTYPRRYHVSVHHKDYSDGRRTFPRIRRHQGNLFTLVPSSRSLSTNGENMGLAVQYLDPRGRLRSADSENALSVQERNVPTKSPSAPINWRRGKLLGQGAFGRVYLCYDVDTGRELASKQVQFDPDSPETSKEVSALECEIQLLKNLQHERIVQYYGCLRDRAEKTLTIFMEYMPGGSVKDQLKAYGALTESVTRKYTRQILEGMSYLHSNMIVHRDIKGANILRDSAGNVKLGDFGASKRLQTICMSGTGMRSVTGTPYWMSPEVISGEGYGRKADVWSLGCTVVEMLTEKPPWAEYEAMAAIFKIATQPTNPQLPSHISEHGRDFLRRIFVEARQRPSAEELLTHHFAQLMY
Procedure: as §1, §2, §3

TRKB = target: T6, TRKB (Homo sapiens, UniProt Q16620); test: PanQinase kinase panel: TRKB; details: read-out: INHIBITORY EFFECT @ 1 uM: TRKB
T6 construct: purchased Reaction Biology Europe GmbH
T6 sequence (Q16620 32-822): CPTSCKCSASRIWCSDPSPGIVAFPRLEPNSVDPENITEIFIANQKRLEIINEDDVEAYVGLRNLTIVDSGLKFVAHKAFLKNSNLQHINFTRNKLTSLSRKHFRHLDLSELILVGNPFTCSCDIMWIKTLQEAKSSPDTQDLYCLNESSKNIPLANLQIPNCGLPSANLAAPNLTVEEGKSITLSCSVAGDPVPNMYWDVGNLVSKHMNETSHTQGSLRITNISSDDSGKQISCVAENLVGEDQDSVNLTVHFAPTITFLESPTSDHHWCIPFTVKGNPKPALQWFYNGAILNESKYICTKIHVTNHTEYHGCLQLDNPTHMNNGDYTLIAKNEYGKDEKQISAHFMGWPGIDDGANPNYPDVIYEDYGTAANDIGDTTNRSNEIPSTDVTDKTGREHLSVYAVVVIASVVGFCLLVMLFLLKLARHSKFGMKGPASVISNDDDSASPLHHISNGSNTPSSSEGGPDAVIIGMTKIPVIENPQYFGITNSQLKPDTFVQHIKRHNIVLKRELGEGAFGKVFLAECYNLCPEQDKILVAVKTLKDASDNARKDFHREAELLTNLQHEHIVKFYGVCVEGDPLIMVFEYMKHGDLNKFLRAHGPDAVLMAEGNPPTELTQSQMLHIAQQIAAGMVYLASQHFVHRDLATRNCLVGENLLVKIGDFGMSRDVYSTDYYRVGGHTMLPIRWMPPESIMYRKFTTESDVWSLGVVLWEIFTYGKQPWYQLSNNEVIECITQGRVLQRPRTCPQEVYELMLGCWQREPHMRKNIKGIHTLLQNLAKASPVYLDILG
Procedure: as §1, §2, §3

T1 sequence (P00533 25-1210): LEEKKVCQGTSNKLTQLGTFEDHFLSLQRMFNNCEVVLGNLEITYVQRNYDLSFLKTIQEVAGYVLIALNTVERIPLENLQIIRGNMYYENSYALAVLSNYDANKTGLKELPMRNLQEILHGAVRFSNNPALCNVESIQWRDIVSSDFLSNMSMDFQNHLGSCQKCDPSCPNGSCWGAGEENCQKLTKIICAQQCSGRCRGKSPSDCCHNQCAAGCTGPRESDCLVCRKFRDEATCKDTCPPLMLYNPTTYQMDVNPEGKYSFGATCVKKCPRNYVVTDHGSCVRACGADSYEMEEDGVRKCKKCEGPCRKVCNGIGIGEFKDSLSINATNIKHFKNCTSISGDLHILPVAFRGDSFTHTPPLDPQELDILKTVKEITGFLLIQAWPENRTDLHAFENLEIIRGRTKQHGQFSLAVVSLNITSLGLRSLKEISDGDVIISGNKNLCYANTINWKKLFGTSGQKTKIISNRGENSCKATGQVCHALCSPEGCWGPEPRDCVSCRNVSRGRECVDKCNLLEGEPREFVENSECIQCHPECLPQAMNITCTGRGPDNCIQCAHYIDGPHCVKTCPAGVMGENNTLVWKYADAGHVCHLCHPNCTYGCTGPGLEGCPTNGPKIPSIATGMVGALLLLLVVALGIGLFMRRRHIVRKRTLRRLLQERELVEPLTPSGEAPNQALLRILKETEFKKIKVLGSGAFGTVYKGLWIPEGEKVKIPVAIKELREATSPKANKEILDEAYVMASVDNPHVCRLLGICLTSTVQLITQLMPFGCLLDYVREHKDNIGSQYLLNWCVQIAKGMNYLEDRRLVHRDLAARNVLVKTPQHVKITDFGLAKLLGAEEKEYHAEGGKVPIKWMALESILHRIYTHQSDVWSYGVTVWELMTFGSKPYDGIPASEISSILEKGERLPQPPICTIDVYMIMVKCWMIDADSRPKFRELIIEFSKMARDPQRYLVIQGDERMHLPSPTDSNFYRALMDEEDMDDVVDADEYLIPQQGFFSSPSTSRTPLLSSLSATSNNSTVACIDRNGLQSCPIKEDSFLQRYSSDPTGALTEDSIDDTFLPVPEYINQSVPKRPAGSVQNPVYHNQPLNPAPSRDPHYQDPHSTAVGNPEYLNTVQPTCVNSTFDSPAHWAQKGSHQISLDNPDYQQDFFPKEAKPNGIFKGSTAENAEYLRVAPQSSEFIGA

SMILES | inhibition at 1 µM (EGFR) [%] | inhibition at 1 µM (FGFR1) [%] | inhibition at 1 µM (EPHA6) [%] | inhibition at 1 µM (ITK) [%] | inhibition at 1 µM (MEKK3) [%] | inhibition at 1 µM (TRKB) [%]
O=C(c1ccc(Oc2ccccc2)cc1Cl)c1c[nH]c2ncnc(N[C@@H]3CC[C@@H](CO)OC3)c12 [ARQ-531, (2-chloro-4-phenoxyphenyl) (4-(((3R,6S)-6-(hydroxymethyl)tetrahydro-2H-pyran-3-yl)amino)-7H-pyrrolo[2,3-d]pyrimidin-5-yl) methanone] | 70 to 89 | 50 to 69 | 50 to 69 | 50 to 69 | 50 to 69 | < 50
Cc1cccnc1[C@H]1CCC[C@@H](c2ncccc2C)N1CCN1CCN(C(=O)c2ccc(-c3cc4c(-c5cccc(NC(=O)c6ccccc6)c5C)ncnc4[nH]3)cc2)CC1 [Compound I-10, N-(3-(6-(4-(4-(2-((2R,6S)-2,6-bis(3-methylpyridin-2-yl)piperidin-1-yl)ethyl)piperazine-1-carbonyl)phenyl)-7H-pyrrolo[2,3-d]pyrimidin-4-yl)-2-methylphenyl)benzamide] | < 50 | < 50 | < 50 | < 50 | < 50 | < 50
COc1ccc(F)cc1C(=O)NCc1ccc(-c2nn([C@@H](C)C(F)(F)F)c(N)c2C(N)=O)cc1 [LOXO-305, pirtobrutinib] | < 50 | < 50 | < 50 | < 50 | < 50 | 50 to 69
C=CC(=O)N1CCC([C@@H]2CCNc3c(C(N)=O)c(-c4ccc(Oc5ccccc5)cc4)nn32)CC1 [Zanubrutinib, (7S)-2-(4-phenoxyphenyl)-7-(1-prop-2-enoylpiperidin-4-yl)-4,5,6,7-tetrahydropyrazolo[1,5-a]pyrimidine-3-carboxamide] | < 50 | < 50 | < 50 | < 50 | < 50 | < 50
